Assay results published in patent publication US9938284B2, “Organic compounds” (INTRA-CELLULAR THERAPIES, INC., priority 2014, dated 2018).

Test: Pharmacokinetic analysis in mice, plasma and brain levels by LC-MS/MS
Type: in vivo
Details: male C57 BL/6 mice, 10 mg/kg oral (PO)
Protocol: Pharmacokinetic Analysis of the Compounds of the Invention
Animals: Male, C57 BL/6 mice (Jackson Labs, 25-30 g in body weight) are provided by Jackson Laboratories. Up to five mice are housed per cage and are maintained under a 12 hour light/dark cycle with access to food and water ad libitum. All procedures for the handling and use of animals follow the guidelines of the Institutional Animal Care and Use Committee (IACUC) of Columbia University, in accordance with NIH guidelines. Eight week-old mice (N=3/dose level or treatment group) are used in the experiments.
Experimental Treatment: Compounds: Selected Compounds of the Invention are evaluated in the present study. […]
Compound Preparation: Powdered stocks of the test compound(s) are measured and dissolved in 3% 1N HCl, 5% Labrasol and 92% of 5% TPGS in 0.05M Citrate buffer (CB, pH 4.0). […]
Treatment of Animals: Mice (N=3 mice/dose/time point) receive a 10 mg/kg oral (PO) dose of the test compound(s) at time 0. […] Plasma and brain tissue samples are processed and analyzed by the analytical group using LC-MS/MS methods, as described below. […]
Each tube is vortexed, then centrifuged for 20 min at 15000 rpm using a Tomy benchtop centrifuge at 4° C. Standard is an internal standard used for LC-MS/MS quantitation. […]
RESULTS: Plasma and Brain Analysis: All the test compound(s) tested could be detected and analyzed when spiked into control plasma. […]

Kp (C57BL/6, mouse, brain/plasma, 0.25-2 h, read-out: B/P ratio (Brain AUC(0-2h)/Plasma AUC(0-2h))): ≤ 0.15 | oral bioavailability: display oral bioavailability
SMILES: Cc1nnc2n(C)c(=O)c3c(Nc4ccccc4)n(Cc4ccc(-c5cccc(F)n5)cc4)nc3n12 [Example 2, 2-(4-(6-Fluoro-pyridin-2-yl)-benzyl)-5,8-dimethyl-3-phenylamino-2H,5H-pyrazolo[4,3-e][1,2,4]triazolo[4,3-a]pyrimidin-4-one]
